Columns and labels:
[1] = The drug is tested on Eubacterium ventriosum strain: ATCC27560 for biotransformation. The drug concentrations were measured before and after a 12-h incubation by liquid-chromatography-coupled mass spectrometry (LC–MS); assay type: ADME; design: dose 2 uM, timepoint 0 vs 12 hours; conditions: 2 µM
[2] = The drug is tested on Blautia hansenii strain: DSM20583 for biotransformation. The drug concentrations were measured before and after a 12-h incubation by liquid-chromatography-coupled mass spectrometry (LC–MS); conditions: 2 µM
[3] = The drug is tested on Ruminococcus lactaris strain: ATCC29176 for biotransformation. The drug concentrations were measured before and after a 12-h incubation by liquid-chromatography-coupled mass spectrometry (LC–MS); conditions: 2 µM
[4] = The drug is tested on Eubacterium hallii strain: DSM3353 for biotransformation. The drug concentrations were measured before and after a 12-h incubation by liquid-chromatography-coupled mass spectrometry (LC–MS); conditions: anaerobutyricum hallii, 2 µM
[5] = enterocloster bolteae, 12 h, 2 µM
Description: The drug is tested on Clostridium bolteae strain: ATCCBAA-613 for biotransformation. The drug concentrations were measured before and after a 12-h incubation by liquid-chromatography-coupled mass spectrometry (LC–MS)

[6] = The drug is tested on Bacteroides dorei strain: DSM17855 for biotransformation. The drug concentrations were measured before and after a 12-h incubation by liquid-chromatography-coupled mass spectrometry (LC–MS); conditions: phocaeicola dorei, 2 µM
[7] = The drug is tested on Parabacteroides merdae strain: ATCC43184 for biotransformation. The drug concentrations were measured before and after a 12-h incubation by liquid-chromatography-coupled mass spectrometry (LC–MS); conditions: 2 µM
[8] = The drug is tested on Subdoligranulum variabile strain: DSM15176 for biotransformation. The drug concentrations were measured before and after a 12-h incubation by liquid-chromatography-coupled mass spectrometry (LC–MS); conditions: 2 µM
[9] = The drug is tested on Escherichia coli strain: BW25113 for biotransformation. The drug concentrations were measured before and after a 12-h incubation by liquid-chromatography-coupled mass spectrometry (LC–MS); conditions: 2 µM
[10] = The drug is tested on Ruminococcus gnavus strain: ATCC29149 for biotransformation. The drug concentrations were measured before and after a 12-h incubation by liquid-chromatography-coupled mass spectrometry (LC–MS); conditions: mediterraneibacter gnavus, 2 µM
[11] = The drug is tested on Clostridium sp. strain: fecal isolate for biotransformation. The drug concentrations were measured before and after a 12-h incubation by liquid-chromatography-coupled mass spectrometry (LC–MS); conditions: 2 µM
[12] = The drug is tested on Clostridium asparagiforme strain: DSM15981 for biotransformation. The drug concentrations were measured before and after a 12-h incubation by liquid-chromatography-coupled mass spectrometry (LC–MS); assay type: ADME; design: dose 2 uM, timepoint 0 vs 12 hours; conditions: enterocloster asparagiformis, 2 µM
[13] = The drug is tested on Coprococcus comes strain: ATCC27758 for biotransformation. The drug concentrations were measured before and after a 12-h incubation by liquid-chromatography-coupled mass spectrometry (LC–MS); assay type: ADME; design: dose 2 uM, timepoint 0 vs 12 hours; conditions: 2 µM
[14] = The drug is tested on Bacteroides pectinophilus strain: ATCC43243 for biotransformation. The drug concentrations were measured before and after a 12-h incubation by liquid-chromatography-coupled mass spectrometry (LC–MS); conditions: 2 µM
[15] = The drug is tested on Eubacterium rectale strain: ATCC33656 for biotransformation. The drug concentrations were measured before and after a 12-h incubation by liquid-chromatography-coupled mass spectrometry (LC–MS); conditions: agathobacter rectalis, 2 µM
[16] = The drug is tested on Bacteroides ovatus strain: ATCC8483 for biotransformation. The drug concentrations were measured before and after a 12-h incubation by liquid-chromatography-coupled mass spectrometry (LC–MS); conditions: 2 µM
[17] = The drug is tested on Bifidobacterium longum subsp. Infantis strain: CCUG52486 for biotransformation. The drug concentrations were measured before and after a 12-h incubation by liquid-chromatography-coupled mass spectrometry (LC–MS); conditions: 2 µM
[18] = The drug is tested on Bacteroides fragilis strain: ATCC43859 for biotransformation. The drug concentrations were measured before and after a 12-h incubation by liquid-chromatography-coupled mass spectrometry (LC–MS); conditions: 2 µM
[19] = parabacteroides distasonis, 12 h, 2 µM
Description: The drug is tested on Parabacteroides distasonis strain: ATCC8503 for biotransformation. The drug concentrations were measured before and after a 12-h incubation by liquid-chromatography-coupled mass spectrometry (LC–MS)

[20] = bacteroides stercoris, 12 h, 2 µM
Description: The drug is tested on Bacteroides stercoris strain: ATCC43183 for biotransformation. The drug concentrations were measured before and after a 12-h incubation by liquid-chromatography-coupled mass spectrometry (LC–MS)

SMILES: C#C[C@]1(OC(C)=O)CC[C@H]2[C@@H]3CCC4=C/C(=N/O)CC[C@@H]4[C@H]3CC[C@@]21CC [NORGESTIMATE]
- Bacterial Biotransformation [1]: Compound NOT metabolized
- Bacterial Biotransformation [2]: Compound metabolized
- Bacterial Biotransformation [3]: Compound NOT metabolized
- Bacterial Biotransformation [4]: Compound NOT metabolized
- Bacterial Biotransformation [5]: Compound NOT metabolized
- Bacterial Biotransformation [6]: Compound metabolized
- Bacterial Biotransformation [7]: Compound NOT metabolized
- Bacterial Biotransformation [8]: Compound NOT metabolized
- Bacterial Biotransformation [9]: Compound NOT metabolized
- Bacterial Biotransformation [10]: Compound NOT metabolized
- Bacterial Biotransformation [11]: Compound metabolized
- Bacterial Biotransformation [12]: Compound NOT metabolized
- Bacterial Biotransformation [13]: Compound NOT metabolized
- Bacterial Biotransformation [14]: Compound NOT metabolized
- Bacterial Biotransformation [15]: Compound metabolized
- Bacterial Biotransformation [16]: Compound NOT metabolized
- Bacterial Biotransformation [17]: Compound NOT metabolized
- Bacterial Biotransformation [18]: Compound NOT metabolized

SMILES: COCCCC/C(=N\OCCN)c1ccc(C(F)(F)F)cc1.O=C(O)/C=C\C(=O)O [FLUVOXAMINE MALEATE]
- Bacterial Biotransformation [1]: Compound NOT metabolized
- Bacterial Biotransformation [2]: Compound metabolized
- Bacterial Biotransformation [3]: Compound NOT metabolized
- Bacterial Biotransformation [4]: Compound NOT metabolized
- Bacterial Biotransformation [6]: Compound NOT metabolized
- Bacterial Biotransformation [8]: Compound NOT metabolized
- Bacterial Biotransformation [9]: Compound NOT metabolized
- Bacterial Biotransformation [10]: Compound NOT metabolized
- Bacterial Biotransformation [11]: Compound metabolized
- Bacterial Biotransformation [12]: Compound NOT metabolized
- Bacterial Biotransformation [14]: Compound metabolized
- Bacterial Biotransformation [15]: Compound NOT metabolized
- Bacterial Biotransformation [16]: Compound metabolized
- Bacterial Biotransformation [17]: Compound NOT metabolized
- Bacterial Biotransformation [18]: Compound NOT metabolized

SMILES: COC(=O)C1=C(C)NC(C)=C(C(=O)OC(C)C)C1c1cccc2nonc12 (centres undefined) [ISRADIPINE]
- Bacterial Biotransformation [1]: Compound NOT metabolized
- Bacterial Biotransformation [2]: Compound NOT metabolized
- Bacterial Biotransformation [3]: Compound NOT metabolized
- Bacterial Biotransformation [4]: Compound NOT metabolized
- Bacterial Biotransformation [19]: Compound NOT metabolized
- Bacterial Biotransformation [20]: Compound NOT metabolized
- Bacterial Biotransformation [5]: Compound NOT metabolized
- Bacterial Biotransformation [6]: Compound NOT metabolized
- Bacterial Biotransformation [7]: Compound NOT metabolized
- Bacterial Biotransformation [8]: Compound NOT metabolized
- Bacterial Biotransformation [9]: Compound NOT metabolized
- Bacterial Biotransformation [10]: Compound NOT metabolized
- Bacterial Biotransformation [11]: Compound NOT metabolized
- Bacterial Biotransformation [12]: Compound NOT metabolized
- Bacterial Biotransformation [13]: Compound NOT metabolized
- Bacterial Biotransformation [14]: Compound NOT metabolized
- Bacterial Biotransformation [16]: Compound NOT metabolized
- Bacterial Biotransformation [17]: Compound NOT metabolized
- Bacterial Biotransformation [18]: Compound NOT metabolized

SMILES: CCCN1C[C@H](CSC)C[C@@H]2c3cccc4[nH]cc(c34)C[C@H]21.CS(=O)(=O)O [PERGOLIDE MESYLATE]
- Bacterial Biotransformation [1]: Compound NOT metabolized
- Bacterial Biotransformation [2]: Compound NOT metabolized
- Bacterial Biotransformation [4]: Compound NOT metabolized
- Bacterial Biotransformation [20]: Compound NOT metabolized
- Bacterial Biotransformation [5]: Compound NOT metabolized
- Bacterial Biotransformation [6]: Compound NOT metabolized
- Bacterial Biotransformation [7]: Compound NOT metabolized
- Bacterial Biotransformation [8]: Compound NOT metabolized
- Bacterial Biotransformation [9]: Compound NOT metabolized
- Bacterial Biotransformation [10]: Compound NOT metabolized
- Bacterial Biotransformation [11]: Compound NOT metabolized
- Bacterial Biotransformation [12]: Compound NOT metabolized
- Bacterial Biotransformation [13]: Compound NOT metabolized
- Bacterial Biotransformation [14]: Compound NOT metabolized
- Bacterial Biotransformation [15]: Compound NOT metabolized
- Bacterial Biotransformation [16]: Compound NOT metabolized
- Bacterial Biotransformation [17]: Compound NOT metabolized
- Bacterial Biotransformation [18]: Compound NOT metabolized

SMILES: C[C@H]1O[C@@H](O[C@H]2[C@@H](O)C[C@H](O[C@H]3[C@@H](O)C[C@H](O[C@H]4CC[C@@]5(C)[C@H](CC[C@@H]6[C@@H]5C[C@@H](O)[C@]5(C)[C@@H](C7=CC(=O)OC7)CC[C@]65O)C4)O[C@@H]3C)O[C@@H]2C)C[C@H](O)[C@@H]1O [DIGOXIN]
- Bacterial Biotransformation [1]: Compound NOT metabolized
- Bacterial Biotransformation [2]: Compound metabolized
- Bacterial Biotransformation [3]: Compound NOT metabolized
- Bacterial Biotransformation [4]: Compound NOT metabolized
- Bacterial Biotransformation [19]: Compound NOT metabolized
- Bacterial Biotransformation [20]: Compound metabolized
- Bacterial Biotransformation [5]: Compound NOT metabolized
- Bacterial Biotransformation [6]: Compound metabolized
- Bacterial Biotransformation [7]: Compound metabolized
- Bacterial Biotransformation [8]: Compound NOT metabolized
- Bacterial Biotransformation [9]: Compound NOT metabolized
- Bacterial Biotransformation [10]: Compound NOT metabolized
- Bacterial Biotransformation [11]: Compound metabolized
- Bacterial Biotransformation [12]: Compound NOT metabolized
- Bacterial Biotransformation [13]: Compound NOT metabolized
- Bacterial Biotransformation [14]: Compound NOT metabolized
- Bacterial Biotransformation [16]: Compound metabolized
- Bacterial Biotransformation [17]: Compound NOT metabolized
- Bacterial Biotransformation [18]: Compound metabolized

SMILES: OCCN1CCN(CCCN2c3ccccc3Sc3ccc(C(F)(F)F)cc32)CC1 [FLUPHENAZINE]
- Bacterial Biotransformation [1]: Compound metabolized
- Bacterial Biotransformation [2]: Compound NOT metabolized
- Bacterial Biotransformation [3]: Compound NOT metabolized
- Bacterial Biotransformation [4]: Compound metabolized
- Bacterial Biotransformation [19]: Compound metabolized
- Bacterial Biotransformation [20]: Compound metabolized
- Bacterial Biotransformation [5]: Compound NOT metabolized
- Bacterial Biotransformation [6]: Compound metabolized
- Bacterial Biotransformation [7]: Compound NOT metabolized
- Bacterial Biotransformation [8]: Compound NOT metabolized
- Bacterial Biotransformation [9]: Compound metabolized
- Bacterial Biotransformation [10]: Compound NOT metabolized
- Bacterial Biotransformation [12]: Compound NOT metabolized
- Bacterial Biotransformation [13]: Compound metabolized
- Bacterial Biotransformation [14]: Compound NOT metabolized
- Bacterial Biotransformation [15]: Compound metabolized
- Bacterial Biotransformation [16]: Compound NOT metabolized
- Bacterial Biotransformation [17]: Compound NOT metabolized
- Bacterial Biotransformation [18]: Compound NOT metabolized

SMILES: C=CCN1CC[C@]23c4c5ccc(O)c4O[C@H]2C(=O)CC[C@@]3(O)[C@H]1C5 [NALOXONE]
- Bacterial Biotransformation [1]: Compound NOT metabolized
- Bacterial Biotransformation [2]: Compound metabolized
- Bacterial Biotransformation [3]: Compound NOT metabolized
- Bacterial Biotransformation [4]: Compound NOT metabolized
- Bacterial Biotransformation [19]: Compound NOT metabolized
- Bacterial Biotransformation [5]: Compound NOT metabolized
- Bacterial Biotransformation [6]: Compound metabolized
- Bacterial Biotransformation [8]: Compound NOT metabolized
- Bacterial Biotransformation [9]: Compound NOT metabolized
- Bacterial Biotransformation [10]: Compound NOT metabolized
- Bacterial Biotransformation [11]: Compound metabolized
- Bacterial Biotransformation [12]: Compound NOT metabolized
- Bacterial Biotransformation [13]: Compound NOT metabolized
- Bacterial Biotransformation [14]: Compound NOT metabolized
- Bacterial Biotransformation [16]: Compound metabolized
- Bacterial Biotransformation [17]: Compound NOT metabolized
- Bacterial Biotransformation [18]: Compound metabolized

SMILES: O=C(O)CCc1nc(-c2ccccc2)c(-c2ccccc2)o1 [OXAPROZIN]
- Bacterial Biotransformation [1]: Compound NOT metabolized
- Bacterial Biotransformation [2]: Compound metabolized
- Bacterial Biotransformation [3]: Compound NOT metabolized
- Bacterial Biotransformation [4]: Compound NOT metabolized
- Bacterial Biotransformation [19]: Compound metabolized
- Bacterial Biotransformation [20]: Compound NOT metabolized
- Bacterial Biotransformation [5]: Compound NOT metabolized
- Bacterial Biotransformation [6]: Compound metabolized
- Bacterial Biotransformation [7]: Compound NOT metabolized
- Bacterial Biotransformation [8]: Compound NOT metabolized
- Bacterial Biotransformation [10]: Compound NOT metabolized
- Bacterial Biotransformation [11]: Compound NOT metabolized
- Bacterial Biotransformation [12]: Compound metabolized
- Bacterial Biotransformation [13]: Compound NOT metabolized
- Bacterial Biotransformation [14]: Compound NOT metabolized
- Bacterial Biotransformation [15]: Compound NOT metabolized
- Bacterial Biotransformation [16]: Compound NOT metabolized
- Bacterial Biotransformation [17]: Compound NOT metabolized
- Bacterial Biotransformation [18]: Compound metabolized
